Measurements from patent US5260425A, “Anthracycline derivatives having cytostatic activity” (priority 1988, dated 1993).
Converted amounts (≈) assume the structure as drawn. Where two headings read alike, the source gives them in different places.

What was measured:
[1] = tested on: L1210 mouse leukemia cells; test: Formation of colonies of L1210 leukemia cells in soft agar (cytotoxicity in vitro); type: cell-based; details: Mus musculus
Experimental: The cytostatic activity of the compounds according to the invention has been tested using L1210 mouse leukemia cells. Employed for this purpose was the formation of colonies of L1210 leukemia cells in agar plates. This method is used to detect the effect of the test substances on the growth behavior of the cells over 1 hour or over several generations. In this connection, with a cell cycle time of 10-12 hours about 14 consecutive generations are observed in the 7 days the test lasts. In this test, the substances having cytostatic activity according to the invention bring about a reduction in the number of colonies to be observed by comparison with an untreated control sample.
Procedure for determining the formation of colonies of L1210 leukemia cells in soft agar
500 leukemia cells per plate were incubated with various concentrations of the test substance at 37° C. for 1 hour. The cells were then washed twice with McCoy5A medium and finally, after addition of 0.3% agar, poured into Petri dishes. Controls were incubated only with fresh medium. In place of the incubation for one hour, in some cases various concentrations and test substances were mixed with the upper agar layer in order in this way to achieve continuous exposure of the cells throughout the incubation time. After the agar had solidified, the plates were incubated in an incubator at 37° C. for 7 days (5% by volume CO2, 95% relative humidity). The number of colonies which had been produced with a diameter of more than 60 μm was then counted. The results have been reported as the number of colonies in treated agar plates as a percentage of the untreated control. The IC50 was determined as a measure of the activity of the substance from the dose-effect plot obtained in this way. The results for the compounds described herein, by comparison with adriamycin, are compiled in Table 1.

[2] = tested on: sensitive and resistant L1210 leukemia cells; test: Proliferation test (MTT reduction), cross-resistance to doxorubicin/adriamycin in vitro; type: cell-based, mouse; details: for Cross-resistance to doxorubicin (in words): L1210, MTT, in vitro; for Degree of resistance of the cell / Cross-resistance to adriamycin (degree of cross-resistance): MTT, 3d; for Degree of resistance of the cell: IC50 resistant subline related to IC50 sensitive subline; for Cross-resistance to adriamycin (degree of cross-resistance): adriamycin = 100.0
Experimental: L1210, A 549 or HT 29 in the exponential phase of growth are incubated in a cell density of 5×10^3 cells/ml in RPMI 1640 in a 96-well microtiter plate with various concentrations of the test substance at 37° C., 5% CO2 and 95% relative humidity for 72 h. Control experiments receive merely growth medium in place of the test substance. Quadruplicate determinations are set up for each test substance and for the control. After incubation for 65 h, 50 μl of an MTT solution (2.5 mg/ml; MTT=3-(4,5-dimethylthiazol-2-yl)-2,5-diphenyltetrazoliumbromide) in phosphate-buffered saline) are added. MTT is reduced to a dark red insoluble formazan dyestuff in the presence of live cells. This reaction is complete after 7 h (L1210 cells) or after 24 h (A 549, HT 29 cells), and the supernatant medium is carefully removed by aspiration. The insoluble dyestuff is dissolved by addition of 100 μl of DMSO (dimethyl sulfoxide) and the extinction of the resulting solution at a wavelength of 492 nm is then measured for each well in a multiscan 340 CC photometer from Flow.
The ratio of the extinctions for treated and untreated cells provides a dose-effect plot from which the concentration which just kills 50% of the cells (IC50) can be read off. The coefficient of variation for repeat investigations is less than 15%.
The cross-resistance between the particular test compound and doxorubicin as standard compound is determined with the aid of the MTT test (see above for method) on sensitive and resistant L1210 leukemia cells.
The resistant cell line was established by incubation of a sensitive subline with the reference compound in concentrations which increased stepwise.
The IC50 of the test compound on the resistant subline related to the IC50 of the sensitive subline provides both the degree of resistance for the test Compound (DR(T)) and that for the reference compound (DR(R)) in accordance with the formula [formula]
In addition, the degree of cross-resistance (DCR) for the test compound is calculated in accordance with the formula [formula]
In the case where the loss of effect of the test compound on the resistant line in relation to the sensitive line is greater than that of the reference compound it is possible for the degree of cross-resistance to be above 100%.

[3] = Determination of the indicative toxicity; details: mouse, in vivo, ip; 3xip,q3d (three intraperitoneal administrations, 3 days interval); survival day 14
Experimental: To determine the indicative toxicity, NMRI mice receive an intraperitoneal injection of various doses of the test substance dissolved in 0.5 ml of 5% strength glucose solution on day 0. Control groups receive merely 0.5 ml of 5% strength glucose solution. 5 mice are used for each concentration of the test substance. The number of mice surviving on day 14 is determined, and from this the LD5, LD50 and LD95 are determined by the Litchfield-Wilcoxon method. The toxicity (LD50 (mg/kg)) of the compounds described here is summarized in Table 3 by comparison with adriamycin.

L1210 leukemia = test: In vivo activity on L1210 leukemia of the mouse (antitumor activity T/C); details: for response vs control in vivo at 2.8 mg/kg: dose 2.80 mg/kg
Experimental: Ascites fluid is removed from DBA2 mice (female, 18-20 g) under sterile conditions 7 days after inoculation of tumor cells. The ascites is washed three times with PBS (phosphate-buffered saline), counted and adjusted to a cell count of 10^6 in 0.2 ml of PBS.
10^6 cells, suspended in 0.2 ml of PBS, are then injected intraperitoneally into DBF1 mice (female, 18-20 g). 6 animals per group are used for each substance concentration and as controls.
a) The animals are weighed on days 1 and 5 after injection of the test substance. A weight loss of more than 20% on day 5 is regarded as an indicator of a toxic effect of the substance.
b) At the end of the experiment (death of all animals or surviving animals on day 60) the mean survival time of the animals in the particular groups is determined as long as at least 65% of the animals were still alive on day 5 of the experiment. The mean survival time is determined only for animals which die during the course of the experiment. Long-term survivors (LTS) are not included in this calculation and are reported separately.
The antitumor activity (T/C) for the particular substance concentration is determined from the mean survival time (MSTT) in the treated groups and in the control groups (MSTC) as a percentage of the untreated controls in accordance with the following formula: [formula]
The T/C values and the treatment regimen employed in each case are compiled in Table 3, together with the indicative toxicity. T/C values greater than 125% are regarded as an indicator of a significant antitumor activity of the test substance.

[4] = Determination of the indicative toxicity; details: mouse, in vivo; 3xiv,q3d (three intravenous administrations, 3 days interval); survival day 14
[5] = L1210, 168 h, read-out: IC50, continuous incubation, continuous incubation, 7 days, L1210 colonies in agar
[6] = L1210, read-out: IC50, 1 h incubation, 1 h incubation, then 7 days, L1210 colonies in agar
[7] = Mus musculus, L1210, iv, read-out: T/C, L1210-leukemia in vivo
[8] = 168 h, continuous incubation, 7 days, L1210 colonies in agar, read-out: IC50, continuous incubation
[9] = 1 h incubation, then 7 days, L1210 colonies in agar, read-out: IC50, 1 h incubation

In the case of C=CCN(C)[C@H]1C[C@H](O[C@H]2C[C@](O)(CC)[C@H](O)c3c(O)c4c(c(O)c32)C(=O)c2c(O)cccc2C4=O)O[C@@H](C)[C@H]1O [Compound 1, 7-O-(3'-N-Allyl-3'-N-methyl-alpha-L-daunosaminyl)-β-rhodomycinone], the IC50 [1, 5] is reported as 0.01 µg/mL (≈ 0.0176 µM), the IC50 [1, 6] is reported as 0.08 µg/mL (≈ 0.14 µM) and the “Cross-resistance to doxorubicin (in words)” value [2] is reported as “not cross-resistant to doxorubicin”. The “Degree of resistance of the cell” value [2] was 10.0, the “Cross-resistance to adriamycin (degree of cross-resistance)” value (shortened to “Cross-resistance to adriamycin”) [2] was 19.0% and the LD50 at 336 h [3] was 1 to 5 mg/kg. The response vs control in vivo at 1.19 mg/kg (L1210 leukemia; Mus musculus, L1210, ip, read-out: T/C, L1210-leukemia in vivo) was 200% and the response vs control in vivo at 1 mg/kg (L1210 leukemia; [7]) was 146%.
For COc1cccc2c1C(=O)c1c(O)c3c(c(O)c1C2=O)C[C@@](O)(C(=O)CO)C[C@@H]3O[C@H]1C[C@H](N)[C@H](O)[C@H](C)O1 [Adriamycin, reference compound], the IC50 [1, 8] was 0.02 µg/mL (≈ 0.0368 µM), the IC50 [1, 9] was 0.04 µg/mL (≈ 0.0736 µM) and the “Degree of resistance of the cell” value [2] was 60-80. For the same molecule, the “Cross-resistance to adriamycin” value [2] was 100.0%, the LD50 at 336 h [3] was 2.7 mg/kg and the “Animals recovered (longterm survivors)” value (L1210 leukemia; 3xip,q3d, L1210-leukemia in vivo) was “Two of 6”.
With CC[C@@]1(O)C[C@H](O[C@H]2C[C@H](N(C)Cc3ccco3)[C@H](O)[C@H](C)O2)c2c(O)c3c(c(O)c2[C@H]1O)C(=O)c1cccc(O)c1C3=O [Compound 6, 7-O-(3'-N-(2-Furfuryl)-3'-N-methyl-alpha-L-daunosaminyl)-β-rhodomycinone] the IC50 [1, 8] was 0.03 µg/mL (≈ 0.0492 µM), the IC50 [1, 9] was 0.038 µg/mL (≈ 0.0623 µM) and the “Cross-resistance to doxorubicin (in words)” value [2] was “not cross-resistant to doxorubicin”. For the same molecule, the “Degree of resistance of the cell” value [2] was 2.0, the “Cross-resistance to adriamycin” value [2] was 2.0% and the LD50 at 336 h [3] was 1 to 5 mg/kg. The response vs control in vivo at 2.8 mg/kg (L1210 leukemia; Mus musculus, L1210, ip, 3xip,q3d, % of the control) was 141% and the response vs control in vivo at 2.8 mg/kg (L1210 leukemia; Mus musculus, L1210, iv, 3xiv,q3d, % of the control) was 129%.
C#CCN(C)[C@H]1C[C@H](O[C@H]2C[C@](O)(CC)[C@H](O)c3c(O)c4c(c(O)c32)C(=O)c2c(O)cccc2C4=O)O[C@@H](C)[C@H]1O [Compound 2, 7-O-(3'-N-methyl-3'-N-proparayl-alpha-L-daunosaminyl)-β-rhodomycinone] showed an IC50 [1, 8] of 0.08 µg/mL (≈ 0.141 µM), an IC50 [1, 9] of 0.3 µg/mL (≈ 0.529 µM) and a response vs control in vivo at 1.2 mg/kg (L1210 leukemia; Mus musculus, L1210, iv, 3xiv,q3d, dose 1.20 mg/kg, % of the control) of 144%. The LD50 at 336 h [4] was 2 to 5 mg/kg.
Molecule CC[C@@]1(O)C[C@H](O[C@H]2C[C@H](N(C)CC3CO3)[C@H](O)[C@H](C)O2)c2c(O)c3c(c(O)c2[C@H]1O)C(=O)c1c(O)ccc(O)c1C3=O (stereo partly drawn) [Compound 14m, 7-O-(3'-N-Glycidyl-3'-N-methyl-alpha-L-daunosaminyl)-β-isorhodomycinone] has an IC50 [1, 5] of 0.005 µg/mL (≈ 0.00831 µM), an IC50 [1, 6] of 0.0024 µg/mL (≈ 0.00399 µM) and a response vs control in vivo at 0.13 mg/kg (L1210 leukemia; [7]) of 104%. The LD50 at 336 h [4] was 0.3 to 0.75 mg/kg.
CC[C@@]1(O)C[C@H](O[C@H]2C[C@H](N(C)Cc3ccsc3)[C@H](O)[C@H](C)O2)c2c(O)c3c(c(O)c2[C@H]1O)C(=O)c1cccc(O)c1C3=O [Compound 12, 7-O-(3'-N-Methyl-3'-N-(3-thenyl)-alpha-L-daunosaminyl)-β-rhodomycinone] showed an IC50 [1, 5] of 0.032 µg/mL (≈ 0.0511 µM), an IC50 [1, 6] of 0.17 µg/mL (≈ 0.272 µM) and an LD50 at 336 h [4] of 2 to 5 mg/kg.
